Data from article PMC6385020 (Molecules, 2019).

What was measured:
[1] = tested on: G4 structures (22AG, c-myc, 21CTA, CEB25-WT); assay: TO-PRO-3-G4-FID assay, G4 structures; type: binding
Protocol: (§1) For the G4-FID assay, the oligonucleotides were dissolved in K^+100 buffer (10 mM lithium cacodylate buffer pH 7.3, 100 mM KCl, 1% DMSO). Oligonucleotide concentrations were determined on the basis of their absorbance at 260 nm. For the fluorimetric titration, the oligonucleotides were dissolved in K^+100 buffer without DMSO. For the FRET-melting assay, the oligonucleotides were dissolved in K^+1 buffer (10 mM lithium cacodylate buffer pH 7.3, 1 mM KCl, 99 mM LiCl) except for F-21-T. F-21-T was dissolved in K^+10 buffer (10 mM lithium cacodylate buffer pH 7.3, 10 mM KCl, 90 mM LiCl).
(§2) Prior to use, all oligonucleotides were pretreated by heating at 95 °C for 5 min, then rapidly cooled to 4 °C to favor the intramolecular folding by kinetic trapping. Duplex-DNA ds26 was prepared by heating the self-complementary strand at 90 °C for 5 min in K^+1 buffer followed by a slow cooling over 6 h.
(§3) Each G4-FID assay was performed in a 96-well Non-Binding Surface black with black bottom polystyrene microplates (Corning). Every ligand was tested on a line of the microplate, in duplicate. The microplate was filled with (a) K^+100 solution (qs for 200 μL), (b) 10 μL of a solution of pre-folded oligonucleotides (5 μM) and fluorescent probe (TO/TO-PRO-3 (10 μM—2 eq) or PhenDV (7,5 µM—1.5 eq)), and (c) an extemporaneously prepared 5 μM ligand solution in K^+100 buffer (0 to 100 μL) along the line of the microplate, i.e., from column A to column H: 0, 0.125, 0.25, 0.375, 0.5, 0.625, 0.75, 1.0, 1.25, 1.5, 2.0, and 2.5 μM. After 5 min of orbital shaking at 500 rpm, fluorescence is measured using the following experimental parameters: positioning delay of 0.5 s, 20 flashes per well, emission/excitation filters for TO at 485/520, TO-PRO-3 at 620/670, and PhenDV at 355/520 gain adjusted at 80% of the fluorescence from the most fluorescent well (i.e., a well from column A for TO and a well from column H).
(§4) The percentage of TO displacement is calculated from the fluorescence intensity (F), using (1) % TO displacement=1−F/F0 where F0 is the fluorescence from the fluorescent probe bound to DNA without added ligand.
(§5) The PhenDV displacement is calculated from the fluorescence intensity F; F(ligand+probe), which refers to the fluorescence of the probe in presence of the ligand (without G4); and F0, which is the fluorescence without added ligand. The term F(ligand+probe) is necessary as the ligand can quench the fluorescence of the probe. The percentage of displacement is then plotted as a function of the concentration of the added ligand. The DNA affinity was evaluated by the concentration of ligand required to decrease the fluorescence of the probe by 50%, was noted DC50, and was determined after non-linear fitting of the displacement curve.

22AG human telomeric G4 = assay: Platination of 22AG followed by denaturing gel electrophoresis; type: biochemical; settings: 0.2 µM 22AG, 1 µM complex, 25 to 95 °C gradient, K+10 buffer
Source text: Since all these complexes (except for Pt(PA)-tpy) are susceptible to induce platination reactions, they can be exacerbated by a high temperature and by an increased number of nucleophilic sites which are exposed during unfolding (increased N7 G free sites); we wonder if such a reaction could occur during FRET-melting experiments and to what extent. Therefore, we followed the extent of platination reactions of c-myc and 22AG (same sequences as those used for FRET-melting but without fluorophore labeling) as a function of the melting temperature using ^32P-labelled oligonucleotides and denaturing gel electrophoresis (Figure 2).
The oligonucleotides were 5’-end-labelled using a polynucleotide kinase and (γ^32P)-ATP (Perkin Helmer). The reaction products were purified by electrophoresis on 20% denaturing gel. Sample platinations were prepared by folding a mixture of 5’-end-radiolabeled DNA and 10 µM or 100 µM of non-radiolabeled material in 100 mM KClO4 or 100 mM KCl solution except for the platination reaction in the denaturing temperature conditions. The folding was achieved by heating the samples at 90 °C for 5 min, followed by slow cooling to room temperature over the course of 2 h to induce the formation of the quadruplex structure. It was then incubated with platinum complexes, and platinated products were separated by electrophoresis on 15% denaturing gel. […]

c-myc G4 = assay: TO-PRO-3 G4-FID assay; type: binding; settings: TO-PRO-3 2 eq, K+100 buffer
Protocol: as §1, §2, §3, §4, §5

[2] = tested on: 22AG human telomeric sequence G4; assay: TO-PRO-3 G4-FID assay; type: binding; settings: TO-PRO-3 2 eq, K+100 buffer
Protocol: as §1, §2, §3, §4, §5

[3] = tested on: CEB25-WT minisatellite sequence G4; assay: TO-PRO-3 G4-FID assay; type: binding; settings: TO-PRO-3 2 eq, K+100 buffer
Protocol: as §1, §2, §3, §4, §5

[4] = tested on: CEB25-WT (DNA, G4) AAGGGTGGGTGTAAGTGTGGGTGGGT; assay: G4-FID, thiazole orange displacement; settings: 100 mM KCl; 10 mM lithium cacodylate pH 7.3, 1% DMSO; thiazole orange displaced; 1 µM compound, 0.25 µM DNA
duplex ds26 DNA = assay: TO-PRO-3 G4-FID assay; type: binding; settings: ds26, K+100 buffer
Protocol: as §1, with “LiCl). […]” for “LiCl).”
Each G4-FID assay was performed in a 96-well Non-Binding Surface black with black bottom polystyrene microplates (Corning). […] After 5 min of orbital shaking at 500 rpm, fluorescence is measured using the following experimental parameters: positioning delay of 0.5 s, 20 flashes per well, emission/excitation filters for TO at 485/520, TO-PRO-3 at 620/670, and PhenDV at 355/520 gain adjusted at 80% of the fluorescence from the most fluorescent well (i.e., a well from column A for TO and a well from column H).
The percentage of TO displacement is calculated from the fluorescence intensity (F), using (1) % TO displacement=1−F/F0 where F0 is the fluorescence from the fluorescent probe bound to DNA without added ligand. […]

[5] = tested on: 21CTA (DNA, G4) AGGGCTAGGGCTAGGGCTAGGG; assay: G4-FID, thiazole orange displacement; settings: 100 mM KCl; 10 mM lithium cacodylate pH 7.3, 1% DMSO; thiazole orange displaced; 1 µM compound, 0.25 µM DNA
[6] = tested on: F-21-T (DNA, G4) GGGTTAGGGTTAGGGTTAGGG; assay: FRET-melting; settings: 10 mM KCl, 90 mM LiCl; 10 mM lithium cacodylate pH 7.3; 1 µM compound, 0.2 µM DNA
[7] = tested on: ds26 (DNA, duplex) CAATCGGATCGAATTCGATCCGATTG; assay: G4-FID, thiazole orange displacement; settings: 100 mM KCl; 10 mM lithium cacodylate pH 7.3, 1% DMSO; thiazole orange displaced; 1 µM compound, 0.25 µM DNA

Row | Compound | TO-PRO-3 displacement [1] | platination of 22AG during melting temperature experiments (22AG human telomeric G4) | % of TOPRO3 displacement at 1 µM of ligand (c-myc G4) | % of TOPRO3 displacement at 1 µM of ligand [2] | % of TOPRO3 displacement at 1 µM of ligand [3] | % TO displacement [4] | % of TOPRO3 displacement at 1 µM of ligand (duplex ds26 DNA) | % TO displacement [5] | ΔTm [6] | % TO displacement [7]
1 | [Cl-].[Cl][Pt+].c1ccc(-c2cccc(-c3ccccn3)n2)nc1 [Pt-tpy] | weak displacement | clearly platinate | 32% | 12% | – | – | – | – | – | –
2 | CN(C)c1ccc(/C=C/c2cc(-c3ccccn3)nc(-c3ccccn3)n2)cc1.[Cl-].[Cl][Pt+] [Pt-vpym, Chloro-(E)-4-(2-(2,6-di(pyridin-2-yl)pyrimidin-4-yl)vinyl)-N,N-dimethylaniline-platinum(II) Chloride] | 30% | – | 32% | 28% | 23% | – | – | – | – | –
3 | Cc1ccc(-c2cc(-c3ccccn3)nc(-c3ccccn3)c2)cc1.[Cl-].[Cl][Pt+] [Pt-ttpy] | – | clearly platinate | 76% | 65% | 62% | > 80% | 13% | > 80% | > 10 °C | < 20%
4 | [Cl-].[Cl][Pt+].c1ccc(-c2cc(-c3ccc(OCCN4CCCC4)cc3)nc(-c3ccccn3)n2)nc1 [Pt-cpym, Chloro-(2,4-di(pyridin-2-yl)-6-(4-(2-(pyrrolidin-1-yl)ethoxy)phenyl)pyrimidine)-platinum(II) Chloride] | weak displacement | – | – | 25% | – | < 60% | – | < 60% | – | –
5 | CN(C)CCCNCc1ccc(-c2cc(-c3ccccn3)nc(-c3ccccn3)c2)cc1.[Cl-].[Cl][Pt+] [Pt-ctpy] | – | – | 58% | 78% | 76% | > 80% | 24% | > 80% | – | < 20%
